Bridge positions count the residues as written; N and C are the ends. Square brackets hold non-standard residues; d marks the D form. Peptide text beside a SMILES is read from it. Nle = CCCC[C@H](N)C(=O)O
Key:
[1] = target: T1, human Kv1.3 voltage-gated K+ channel (Homo sapiens, UniProt P22001); test: cell-based; conditions: inhibition of thallium flux, CHO-DUKX cells with human Kv1.3; read-out: IC50
T1 construct: host or cells: CHO-DUKX

Kv1.3 = target: T2, Kv1.3 (Homo sapiens, UniProt P22001); test: cell-based; conditions: CHO cells, whole-cell patch clamp; read-out: Potency IC50 (nM) Kv1.3
T2 construct: expressed in transfected cells; host or cells: Chinese Hamster Ovary (CHO)
T2 sequence (P22001 whole entry): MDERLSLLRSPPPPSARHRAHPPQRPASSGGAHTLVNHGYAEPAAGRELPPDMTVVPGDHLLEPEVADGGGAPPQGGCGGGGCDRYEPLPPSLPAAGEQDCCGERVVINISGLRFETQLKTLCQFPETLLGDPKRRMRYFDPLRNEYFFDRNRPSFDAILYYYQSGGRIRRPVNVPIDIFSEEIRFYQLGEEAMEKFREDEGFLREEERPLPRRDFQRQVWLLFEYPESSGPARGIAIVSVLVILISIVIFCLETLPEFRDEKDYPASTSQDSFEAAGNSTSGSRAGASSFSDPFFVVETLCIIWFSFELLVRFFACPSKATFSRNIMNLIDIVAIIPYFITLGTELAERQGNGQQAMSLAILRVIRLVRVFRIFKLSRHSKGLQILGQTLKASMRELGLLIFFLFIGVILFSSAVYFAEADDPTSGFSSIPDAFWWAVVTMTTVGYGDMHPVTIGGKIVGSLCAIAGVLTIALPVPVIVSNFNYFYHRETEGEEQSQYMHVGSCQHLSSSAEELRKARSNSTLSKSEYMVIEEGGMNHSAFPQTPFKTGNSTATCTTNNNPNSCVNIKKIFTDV

Kv1.1 = target: T3, Kv1.1 (Homo sapiens, UniProt Q09470); test: cell-based; conditions: for IC50: CHO cells, whole-cell patch clamp, read-out: Potency IC50 (nM) Kv1.1; for Selectivity Kv1.1/Kv1.3: ratio IC50[Kv1.1]/IC50[Kv1.3]
T3 construct: expressed in transfected cells; host or cells: Chinese Hamster Ovary (CHO)
T3 sequence (Q09470 whole entry): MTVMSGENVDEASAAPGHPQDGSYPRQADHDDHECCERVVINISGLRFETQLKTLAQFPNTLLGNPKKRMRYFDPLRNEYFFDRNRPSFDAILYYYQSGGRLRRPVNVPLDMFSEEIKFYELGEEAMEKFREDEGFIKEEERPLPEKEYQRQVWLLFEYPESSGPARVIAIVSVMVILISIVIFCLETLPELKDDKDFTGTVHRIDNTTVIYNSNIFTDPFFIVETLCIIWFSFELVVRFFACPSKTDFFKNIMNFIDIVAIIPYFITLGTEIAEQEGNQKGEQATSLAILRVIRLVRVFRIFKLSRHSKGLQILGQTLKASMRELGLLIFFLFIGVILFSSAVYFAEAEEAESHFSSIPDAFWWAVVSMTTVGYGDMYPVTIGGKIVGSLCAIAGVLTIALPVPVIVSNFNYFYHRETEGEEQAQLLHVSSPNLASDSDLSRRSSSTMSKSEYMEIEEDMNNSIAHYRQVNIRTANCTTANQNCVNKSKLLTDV

Kv1.6 = target: T4, Kv1.6 (Homo sapiens, UniProt P17658); test: cell-based; conditions: for IC50: CHO cells, whole-cell patch clamp, read-out: Potency IC50 (nM) Kv1.6; for Selectivity Kv1.6/Kv1.3: ratio IC50[Kv1.6]/IC50[Kv1.3]
T4 construct: expressed in transfected cells; host or cells: Chinese Hamster Ovary (CHO)
T4 sequence (P17658 whole entry): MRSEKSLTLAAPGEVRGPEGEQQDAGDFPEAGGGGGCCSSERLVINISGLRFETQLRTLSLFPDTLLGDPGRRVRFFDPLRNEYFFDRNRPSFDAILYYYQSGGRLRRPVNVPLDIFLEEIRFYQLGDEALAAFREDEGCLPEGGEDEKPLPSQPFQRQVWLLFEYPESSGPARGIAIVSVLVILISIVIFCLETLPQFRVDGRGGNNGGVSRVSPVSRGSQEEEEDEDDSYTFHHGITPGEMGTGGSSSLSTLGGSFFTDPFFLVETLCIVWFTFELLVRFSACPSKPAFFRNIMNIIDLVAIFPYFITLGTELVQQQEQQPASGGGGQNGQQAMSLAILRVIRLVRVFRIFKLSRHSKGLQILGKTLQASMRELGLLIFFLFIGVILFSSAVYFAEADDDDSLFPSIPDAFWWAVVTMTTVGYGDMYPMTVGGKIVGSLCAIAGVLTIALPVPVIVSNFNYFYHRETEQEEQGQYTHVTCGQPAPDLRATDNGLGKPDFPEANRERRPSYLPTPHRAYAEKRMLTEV

Rat whole blood = Rat whole blood (Rattus norvegicus, UniProt P15384)
Rat whole blood, sequence (P15384 whole entry): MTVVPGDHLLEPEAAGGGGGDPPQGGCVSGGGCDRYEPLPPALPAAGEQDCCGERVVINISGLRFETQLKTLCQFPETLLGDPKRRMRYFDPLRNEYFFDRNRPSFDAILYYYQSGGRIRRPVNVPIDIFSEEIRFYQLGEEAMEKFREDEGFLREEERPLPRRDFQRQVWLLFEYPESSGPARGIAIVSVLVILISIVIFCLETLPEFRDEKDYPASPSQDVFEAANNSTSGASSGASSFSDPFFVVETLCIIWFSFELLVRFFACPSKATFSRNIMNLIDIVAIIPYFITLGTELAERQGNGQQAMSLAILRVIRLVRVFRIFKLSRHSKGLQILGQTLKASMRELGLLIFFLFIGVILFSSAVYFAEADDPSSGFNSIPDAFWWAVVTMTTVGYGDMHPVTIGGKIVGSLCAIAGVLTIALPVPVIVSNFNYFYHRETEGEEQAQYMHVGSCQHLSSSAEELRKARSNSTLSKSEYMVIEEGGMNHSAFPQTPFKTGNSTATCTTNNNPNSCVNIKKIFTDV

Kv1.2 = target: T5, Kv1.2 (Homo sapiens, UniProt P16389); test: cell-based; conditions: CHO cells, whole-cell patch clamp; read-out: Potency IC50 (nM) Kv1.2
T5 construct: expressed in transfected cells; host or cells: Chinese Hamster Ovary (CHO)
T5 sequence (P16389 whole entry): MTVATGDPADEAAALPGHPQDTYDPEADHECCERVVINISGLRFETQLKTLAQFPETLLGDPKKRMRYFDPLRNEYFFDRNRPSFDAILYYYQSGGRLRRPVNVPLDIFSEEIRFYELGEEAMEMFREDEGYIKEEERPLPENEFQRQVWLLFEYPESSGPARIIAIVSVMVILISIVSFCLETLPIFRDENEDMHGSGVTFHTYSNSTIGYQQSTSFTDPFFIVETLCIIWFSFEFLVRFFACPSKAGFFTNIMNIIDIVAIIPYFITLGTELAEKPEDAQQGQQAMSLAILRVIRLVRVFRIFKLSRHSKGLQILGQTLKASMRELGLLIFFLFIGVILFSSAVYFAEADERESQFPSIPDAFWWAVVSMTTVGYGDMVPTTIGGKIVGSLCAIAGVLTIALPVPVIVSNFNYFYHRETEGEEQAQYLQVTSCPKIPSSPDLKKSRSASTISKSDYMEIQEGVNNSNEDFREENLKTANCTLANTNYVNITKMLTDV

T1 sequence (P22001 whole entry): as the sequence (P22001 whole entry) above

Row | SMILES | IC50 [1] [nM] | IC50 (Kv1.3) [nM] | IC50 (Kv1.1) [nM] | Selectivity Kv1.1/Kv1.3 (Kv1.1) | IC50 (Kv1.6) [nM] | IC50 (Rat whole blood) [nM] | IC50 (Kv1.2) [nM] | Selectivity Kv1.6/Kv1.3 (Kv1.6)
1 | CC[C@H](C)[C@@H]1NC(=O)[C@H](C)NC(=O)[C@H](CCCCN)NC(=O)[C@H](CC(C)C)NC(=O)[C@@H]2CSSC[C@@H](C(=O)N[C@@H](Cc3ccc(O)cc3)C(=O)N3CCC[C@H]3C(=O)N[C@@H](CCCNC(=N)N)C(N)=O)NC(=O)[C@H](CCCCN)NC(=O)[C@@H]3CSSC[C@H](NC(=O)[C@H](CCC(N)=O)NC(=O)[C@H](C(C)C)NC(=O)[C@H](CO)NC(=O)[C@H](C)NC(=O)[C@H](CO)NC(=O)[C@@H](NC(=O)[C@H](CCCNC(=N)N)NC(=O)[C@H](CCSC)NC(=O)[C@H](CC(=O)O)NC(=O)[C@H](CCSC)NC(=O)[C@@H](N)CC(N)=O)CSSC[C@H](NC(=O)[C@H](CCCCN)NC(=O)CNC(=O)[C@H](Cc4ccccc4)NC(=O)[C@H]([C@@H](C)CC)NC(=O)[C@H](CO)NC(=O)CNC1=O)C(=O)N[C@@H](CCSC)C(=O)N[C@@H](CC(N)=O)C(=O)N[C@@H](CCCCN)C(=O)N[C@@H](CCCCN)C(=O)N3)C(=O)N[C@@H](CCCCN)C(=O)N[C@@H](CCC(N)=O)C(=O)N[C@@H](CCCCN)C(=O)N2 [Compound 28] (H-NMDMRCSASVQCKQKCLKAIGSIFGKCMNKKCKCYPR-NH2; disulfide 6-27, 12-32, 16-34) | 0.064 | 0.2 | > 3000 | >15200 | 252 | ≤ 1 | 16 | 
2 | CC[C@H](C)[C@@H]1NC(=O)[C@H](C)NC(=O)[C@H](CCCCN)NC(=O)[C@H](CC(C)C)NC(=O)[C@@H]2CSSC[C@@H](C(=O)N[C@@H](Cc3ccc(O)cc3)C(=O)N3CCC[C@H]3C(=O)N[C@@H](CCCNC(=N)N)C(N)=O)NC(=O)[C@H](CCCCN)NC(=O)[C@@H]3CSSC[C@H](NC(=O)[C@H](CCC(=O)O)NC(=O)[C@H](C(C)C)NC(=O)[C@H](CO)NC(=O)[C@H](C)NC(=O)[C@H](CO)NC(=O)[C@@H](NC(=O)[C@H](CCCNC(=N)N)NC(=O)[C@H](CCSC)NC(=O)[C@H](CC(=O)O)NC(=O)[C@H](CCSC)NC(=O)[C@@H](N)CC(N)=O)CSSC[C@H](NC(=O)[C@H](CCCCN)NC(=O)CNC(=O)[C@H](Cc4ccccc4)NC(=O)[C@H]([C@@H](C)CC)NC(=O)[C@H](CO)NC(=O)CNC1=O)C(=O)N[C@@H](CCSC)C(=O)N[C@@H](CC(N)=O)C(=O)N[C@@H](CCCCN)C(=O)N[C@@H](CCCCN)C(=O)N3)C(=O)N[C@@H](CC(C)C)C(=O)N[C@@H](CCC(N)=O)C(=O)N[C@@H](CCCCN)C(=O)N2 [Compound 29] (H-NMDMRCSASVECLQKCLKAIGSIFGKCMNKKCKCYPR-NH2; disulfide 6-27, 12-32, 16-34) | 0.18 | 0.4 | > 3000 | >7400 | > 3000 | ≤ 1 | 874 | >7400
3 | CC[C@H](C)[C@@H]1NC(=O)[C@H](C)NC(=O)[C@H](CCCCN)NC(=O)[C@H](CC(C)C)NC(=O)[C@@H]2CSSC[C@@H](C(=O)N[C@@H](Cc3ccc(O)cc3)C(=O)N3CCC[C@H]3C(=O)N[C@@H](CCCNC(=N)N)C(N)=O)NC(=O)[C@H](CCCCN)NC(=O)[C@@H]3CSSC[C@H](NC(=O)[C@H](CCC(=O)O)NC(=O)[C@H](C(C)C)NC(=O)[C@H](CO)NC(=O)[C@H](C)NC(=O)[C@H](CO)NC(=O)[C@@H](NC(=O)[C@H](CCCNC(=N)N)NC(=O)[C@H](CCSC)NC(=O)[C@H](CC(=O)O)NC(=O)[C@H](CCSC)NC(=O)[C@@H](N)CC(N)=O)CSSC[C@H](NC(=O)[C@H](CCCCN)NC(=O)CNC(=O)[C@H](Cc4ccccc4)NC(=O)[C@H]([C@@H](C)CC)NC(=O)[C@H](CO)NC(=O)CNC1=O)C(=O)N[C@@H](CCSC)C(=O)N[C@@H](CC(N)=O)C(=O)N[C@@H](CCCCN)C(=O)N[C@@H](CCCCN)C(=O)N3)C(=O)N[C@@H](CCCCN)C(=O)N[C@@H](CCC(=O)O)C(=O)N[C@@H](CCCCN)C(=O)N2 [Compound 31] (H-NMDMRCSASVECKEKCLKAIGSIFGKCMNKKCKCYPR-NH2; disulfide 6-27, 12-32, 16-34) | 0.075 | 0.28 | > 3000 | >10800 | > 3000 | ≤ 1 | 179 | >10800
4 | CC[C@H](C)[C@@H]1NC(=O)[C@H](C)NC(=O)[C@H](CCCCN)NC(=O)[C@H](CC(C)C)NC(=O)[C@@H]2CSSC[C@@H](C(=O)N[C@@H](Cc3ccc(O)cc3)C(=O)N3CCC[C@H]3C(=O)N[C@@H](CCCNC(=N)N)C(N)=O)NC(=O)[C@H](Cc3c[nH]cn3)NC(=O)[C@@H]3CSSC[C@H](NC(=O)[C@H](CCC(=O)O)NC(=O)[C@H](C(C)C)NC(=O)[C@H](CO)NC(=O)[C@H](C)NC(=O)[C@H](CO)NC(=O)[C@@H](NC(=O)[C@H](CCCNC(=N)N)NC(=O)[C@H](CCSC)NC(=O)[C@H](CC(=O)O)NC(=O)[C@H](CCSC)NC(=O)[C@@H](N)CC(N)=O)CSSC[C@H](NC(=O)[C@H](CCCCN)NC(=O)CNC(=O)[C@H](Cc4ccccc4)NC(=O)[C@H]([C@@H](C)CC)NC(=O)[C@H](CO)NC(=O)CNC1=O)C(=O)N[C@@H](CCSC)C(=O)N[C@@H](CC(N)=O)C(=O)N[C@@H](CCCCN)C(=O)N[C@@H](CCCCN)C(=O)N3)C(=O)N[C@@H](CCCCN)C(=O)N[C@@H](CCC(N)=O)C(=O)N[C@@H](CCCCN)C(=O)N2 [Compound 37] (H-NMDMRCSASVECKQKCLKAIGSIFGKCMNKKCHCYPR-NH2; disulfide 6-27, 12-32, 16-34) | 0.14 | 0.19 | > 3000 | >16100 | > 3000 | ≤ 1 | 338 | >16100
5 | CCCC[C@@H]1NC(=O)[C@@H]2CSSC[C@H](NC(=O)[C@H](CCCNC(=N)N)NC(=O)[C@H](CCCC)NC(=O)[C@H](CC(=O)O)NC(=O)[C@H](CCCC)NC(=O)[C@@H](N)CC(N)=O)C(=O)N[C@@H](CCCNC(=N)N)C(=O)N[C@@H](C)C(=O)N[C@@H](CO)C(=O)N[C@@H](C(C)C)C(=O)N[C@@H](CCC(=O)O)C(=O)N[C@H]3CSSC[C@H](NC(=O)[C@H](CCCCN)NC(=O)[C@H](CCCCN)NC(=O)[C@H](CC(N)=O)NC1=O)C(=O)N[C@@H](CCCCN)C(=O)N[C@H](C(=O)N[C@@H](Cc1ccc(O)cc1)C(=O)N1CCC[C@H]1C(=O)N[C@@H](CCCNC(=N)N)C(N)=O)CSSC[C@H](NC(=O)[C@H](CCCCN)NC(=O)[C@H](CCC(N)=O)NC(=O)[C@H](CCCCN)NC3=O)C(=O)N[C@@H](CC(C)C)C(=O)N[C@@H](CCCCN)C(=O)N[C@@H](C)C(=O)N[C@@H]([C@@H](C)CC)C(=O)NCC(=O)N[C@@H](CO)C(=O)N[C@@H]([C@@H](C)CC)C(=O)N[C@@H](Cc1ccccc1)C(=O)NCC(=O)N[C@@H](CCCCN)C(=O)N2 [Compound 42] (H-N[Nle]D[Nle]RCRASVECKQKCLKAIGSIFGKC[Nle]NKKCKCYPR-NH2; disulfide 6-27, 12-32, 16-34) | 0.087 | 0.16 | > 3000 | >18600 | 316 | ≤ 1 | 109 | 
6 | CCCC[C@@H]1NC(=O)[C@@H]2CSSC[C@H](NC(=O)[C@H](CCCNC(=N)N)NC(=O)[C@H](CCCC)NC(=O)[C@H](CO)NC(=O)[C@H](CCCC)NC(=O)[C@@H](N)CC(N)=O)C(=O)N[C@@H](CO)C(=O)N[C@@H](C)C(=O)N[C@@H](CO)C(=O)N[C@@H](C(C)C)C(=O)N[C@@H](CCC(=O)O)C(=O)N[C@H]3CSSC[C@H](NC(=O)[C@H](CCCCN)NC(=O)[C@H](CCCCN)NC(=O)[C@H](CC(N)=O)NC1=O)C(=O)N[C@@H](CCCCN)C(=O)N[C@H](C(=O)N[C@@H](Cc1ccc(O)cc1)C(=O)N1CCC[C@H]1C(=O)N[C@@H](CCCNC(=N)N)C(N)=O)CSSC[C@H](NC(=O)[C@H](CCCCN)NC(=O)[C@H](CCC(N)=O)NC(=O)[C@H](CCCCN)NC3=O)C(=O)N[C@@H](CC(C)C)C(=O)N[C@@H](CCCCN)C(=O)N[C@@H](C)C(=O)N[C@@H]([C@@H](C)CC)C(=O)NCC(=O)N[C@@H](CO)C(=O)N[C@@H]([C@@H](C)CC)C(=O)N[C@@H](Cc1ccccc1)C(=O)NCC(=O)N[C@@H](CCCCN)C(=O)N2 [Compound 46] (H-N[Nle]S[Nle]RCSASVECKQKCLKAIGSIFGKC[Nle]NKKCKCYPR-NH2; disulfide 6-27, 12-32, 16-34) | 0.11 | 0.32 | > 3000 | >9400 | 1390 | ≤ 1 | 302 | 
7 | CCCC[C@@H]1NC(=O)[C@@H]2CSSC[C@H](NC(=O)[C@H](CCCNC(=N)N)NC(=O)[C@H](CCCC)NC(=O)[C@H](CC(=O)O)NC(=O)[C@H](CCCC)NC(=O)[C@@H](N)CC(N)=O)C(=O)N[C@@H](CO)C(=O)N[C@@H](Cc3c[nH]cn3)C(=O)N[C@@H](CO)C(=O)N[C@@H](C(C)C)C(=O)N[C@@H](CCC(=O)O)C(=O)N[C@H]3CSSC[C@H](NC(=O)[C@H](CCCCN)NC(=O)[C@H](CCCCN)NC(=O)[C@H](CC(N)=O)NC1=O)C(=O)N[C@@H](CCCCN)C(=O)N[C@H](C(=O)N[C@@H](Cc1ccc(O)cc1)C(=O)N1CCC[C@H]1C(=O)N[C@@H](CCCNC(=N)N)C(N)=O)CSSC[C@H](NC(=O)[C@H](CCCCN)NC(=O)[C@H](CCC(N)=O)NC(=O)[C@H](CCCCN)NC3=O)C(=O)N[C@@H](CC(C)C)C(=O)N[C@@H](CCCCN)C(=O)N[C@@H](C)C(=O)N[C@@H]([C@@H](C)CC)C(=O)NCC(=O)N[C@@H](CO)C(=O)N[C@@H]([C@@H](C)CC)C(=O)N[C@@H](Cc1ccccc1)C(=O)NCC(=O)N[C@@H](CCCCN)C(=O)N2 [Compound 47] (H-N[Nle]D[Nle]RCSHSVECKQKCLKAIGSIFGKC[Nle]NKKCKCYPR-NH2; disulfide 6-27, 12-32, 16-34) | 0.12 | 0.54 | > 3000 | >5600 | 609 | ≤ 1 | 772 | 

— patent US11780893B2, “Kv1.3 blockers” (Zealand Pharma A/S, priority 2019, dated 2023)
